The values that follow come from patent publication US20050106141A1, “Hairless protein-interacting partner complexes and methods thereof for the beautification and/or improvement of mammalian skin” (The Procter & Gamble Company, priority 2003, published 2005).

Test [1] has as its system LXR. The conditions noted are these: oral administration, mice; cited from earlier work.
The test system of test [2] is LXR. The conditions noted are these: oral administration, hamsters; cited from earlier work.
Test [3] concerns the target T1, BD-VDR><AD-TRβ interaction (Mus musculus, UniProt P48281).
T1 construct: expressed in transfected cells; host or cells: yeast
T1 sequence (P48281 1-422): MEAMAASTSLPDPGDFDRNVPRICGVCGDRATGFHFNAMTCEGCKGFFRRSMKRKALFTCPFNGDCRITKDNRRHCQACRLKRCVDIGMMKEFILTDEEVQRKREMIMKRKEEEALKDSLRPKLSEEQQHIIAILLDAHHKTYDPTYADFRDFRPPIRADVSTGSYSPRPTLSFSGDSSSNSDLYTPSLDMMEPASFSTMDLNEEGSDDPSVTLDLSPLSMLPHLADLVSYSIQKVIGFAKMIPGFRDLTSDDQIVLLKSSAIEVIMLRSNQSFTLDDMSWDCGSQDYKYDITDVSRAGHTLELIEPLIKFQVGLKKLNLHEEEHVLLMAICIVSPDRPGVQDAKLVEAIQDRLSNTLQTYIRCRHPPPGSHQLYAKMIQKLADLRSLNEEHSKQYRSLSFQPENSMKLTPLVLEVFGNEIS
T1 sequence (P10828 1-461 partner): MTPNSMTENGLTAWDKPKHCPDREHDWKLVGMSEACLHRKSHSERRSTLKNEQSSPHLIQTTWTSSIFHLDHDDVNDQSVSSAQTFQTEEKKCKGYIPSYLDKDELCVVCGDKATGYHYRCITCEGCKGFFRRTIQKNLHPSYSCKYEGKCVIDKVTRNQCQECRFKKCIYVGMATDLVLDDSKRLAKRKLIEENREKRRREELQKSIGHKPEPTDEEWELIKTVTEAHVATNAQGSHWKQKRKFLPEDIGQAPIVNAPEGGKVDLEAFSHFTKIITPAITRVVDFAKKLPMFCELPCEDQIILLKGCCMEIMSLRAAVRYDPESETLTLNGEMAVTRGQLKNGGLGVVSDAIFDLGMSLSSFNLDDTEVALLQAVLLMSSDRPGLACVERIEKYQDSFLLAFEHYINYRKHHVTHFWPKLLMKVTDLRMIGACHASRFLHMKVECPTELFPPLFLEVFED
The test is described as follows: Yeast two-hybrid alpha-galactosidase reporter assay, BD-VDR interaction with AD-TRβ. The format is cell-based. To be noted: assay of example 3. (In general: A reporter such as luciferase makes a cellular process visible.)
Method: Increase or decrease in alpha-galactosidase activity of AH109 (BD-HRt><AD-IP) strain grown in Leu, Trp, His TDO in the presence of various test compounds is used to screen for agonists or antagonists of BD-HRt><AD-IP interaction. A diverse library of compounds is screened.
Microtiter plates with TDO media seeded with freshly cultured yeast cells at 0.05 optical density at 650 nm (OD650) are treated with various test compounds at 100-400 uM or vehicle (DMSO) control. Stock solutions of test compounds at 10-20 mM are made in DMSO and tested at 100-400 μM final concentration. The final assay mixture comprising of cells, TDO and compound (or DMSO alone) is adjusted to be 100 ul and the amount of DMSO is maintained at or below 2%. The plates are incubated for 3-4 days without shaking at 25° C. Plates are briefly agitated to obtain uniform suspension of cells prior to addition of assay buffer. […] Plates are briefly agitated to obtain uniform suspension of cells and absorbance at both 650 nM (OD650)ref and 410 nm (OD410)ref are measured. […] For color development 100 ul of 0.1 M sodium carbonate solution is added and after standing for at least 1 minute, OD410exp is measured.

Like-named read-outs stand apart in the source and are kept apart here.

`O=S(=O)(c1ccccc1)N(CC(F)(F)F)c1ccc(C(O)(C(F)(F)F)C(F)(F)F)cc1` [T0901317]: in test [1], the plasma phospholipid levels entry was “increased” and the plasma triglyceride levels entry is given as “increased”. In test [2], the plasma phospholipid levels entry was “increased” and the plasma triglyceride levels entry is reported as “increased”.
As for `C=C1CC[C@H](O)C/C1=C/C=C1\CCC[C@]2(C)[C@@H]([C@H](C)CCCC(C)(C)O)CC[C@@H]12` [25 HC, 25-hydroxy cholecalciferol], in test [3], the “enhancement of BD-VDR / AD-TRβ interaction” value is “approximately 2 fold”.
